#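 Where inhibition never reached the appropriate level, the endpoint shown equals the highest concentration tested. Otherwise, values were interpolated linearly from a five-concentration, 48-hour dose response in 96-well plates. At the GI50, growth is halved.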 The source made the active and inactive calls. Cut-off read from the data, not from the text of the source: active = GI50 up to about 1.1 µM and inactive = higher.
# Experiments:
# Test in all cases: NCI anticancer screen, dose series, 48 h
# [1] = test system: SK-MEL-28
# [2] = test system: LOX IMVI
# [3] = test system: SK-OV-3
# [4] = test system: SN12C
# [5] = test system: NCI-H226
# [6] = test system: KM12
# [7] = test system: ACHN
# [8] = test system: NCI-H522
# [9] = test system: SNB-19
# [10] = test system: HCC 2998
# [11] = test system: NCI/ADR-RES
# [12] = test system: HCT-116
# [13] = test system: A498
# [14] = test system: SK-MEL-5
# [15] = test system: HOP-92
# [16] = test system: HT-29
# [17] = test system: A549
# [18] = test system: SF-539
# [19] = test system: T47D
# [20] = test system: RPMI-8226
# [21] = test system: UO-31
# [22] = test system: SK-MEL-2
# [23] = test system: NCI-H23
# [24] = test system: HCT-15
# [25] = test system: MOLT-4
# [26] = test system: OVCAR-4
# [27] = test system: SF-268
# [28] = test system: BT-549
# [29] = test system: DU-145
# [30] = test system: NCI-H460
# [31] = test system: PC-3
# [32] = test system: UACC-62
# [33] = test system: SF-295
# [34] = test system: M14
# [35] = test system: TK-10
# [36] = test system: COLO 205
# [37] = test system: SNB-75
# [38] = test system: MCF7
# [39] = test system: OVCAR-8
# [40] = test system: IGROV-1
# [41] = test system: CAKI-1
# [42] = test system: CCRF-CEM
# [43] = test system: HL-60
# [44] = test system: Malme-3M
# [45] = test system: MDA-MB-231
# [46] = test system: Hs-578T
# [47] = test system: MDA-MB-435
# [48] = test system: OVCAR-3
# [49] = test system: U-251
# [50] = test system: SW-620
# [51] = test system: UACC-257
# [52] = test system: 786-0
# [53] = test system: SR
# [54] = test system: MDA-N
# [55] = test system: EKVX
# [56] = test system: K562
# [57] = test system: OVCAR-5
# [58] = test system: HOP-62
# [59] = test system: RXF 393
compound,measurement,setting,value
COc1cc2c(cc1OC)C1Cc3ccccc3CCN1CC2 (centres undefined),GI50,[1],> 100 µM (inactive)
same,GI50,[2],> 100 µM (inactive)
same,GI50,[3],> 100 µM (inactive)
same,GI50,[4],> 100 µM (inactive)
same,GI50,[5],60.4 µM (inactive)
same,GI50,[6],> 100 µM (inactive)
same,GI50,[7],> 100 µM (inactive)
same,GI50,[8],> 100 µM (inactive)
same,GI50,[9],> 100 µM (inactive)
same,GI50,[10],44 µM (inactive)
same,GI50,[11],> 100 µM (inactive)
same,GI50,[12],39.1 µM (inactive)
same,GI50,[13],> 100 µM (inactive)
same,GI50,[14],58.1 µM (inactive)
same,GI50,[15],36.1 µM (inactive)
same,GI50,[16],48.1 µM (inactive)
same,GI50,[17],> 100 µM (inactive)
same,GI50,[18],> 100 µM (inactive)
same,GI50,[19],> 100 µM (inactive)
same,GI50,[20],> 100 µM (inactive)
same,GI50,[21],27.2 µM (inactive)
same,GI50,[22],> 100 µM (inactive)
same,GI50,[23],> 100 µM (inactive)
same,GI50,[24],> 100 µM
same,GI50,[25],35.1 µM (inactive)
same,GI50,[26],> 100 µM (inactive)
same,GI50,[27],> 100 µM (inactive)
same,GI50,[28],> 100 µM (inactive)
same,GI50,[29],> 100 µM (inactive)
same,GI50,[30],> 100 µM (inactive)
same,GI50,[31],62.1 µM (inactive)
same,GI50,[32],> 100 µM (inactive)
same,GI50,[33],81.1 µM (inactive)
same,GI50,[34],> 100 µM (inactive)
same,GI50,[35],> 100 µM (inactive)
same,GI50,[36],64.4 µM (inactive)
same,GI50,[37],68.5 µM (inactive)
same,GI50,[38],> 100 µM (inactive)
same,GI50,[39],> 100 µM (inactive)
same,GI50,[40],> 100 µM (inactive)
same,GI50,[41],> 100 µM (inactive)
same,GI50,[42],> 100 µM (inactive)
same,GI50,[43],> 100 µM (inactive)
same,GI50,[44],> 100 µM (inactive)
same,GI50,[45],> 100 µM (inactive)
same,GI50,[46],> 100 µM (inactive)
same,GI50,[47],> 100 µM (inactive)
same,GI50,[48],> 100 µM (inactive)
same,GI50,[49],> 100 µM (inactive)
same,GI50,[50],> 100 µM (inactive)
same,GI50,[51],> 100 µM (inactive)
same,GI50,[52],50 µM (inactive)
same,GI50,[53],92.9 µM (inactive)
same,GI50,[54],> 100 µM (inactive)
same,GI50,[55],> 100 µM (inactive)
same,GI50,[56],62.1 µM (inactive)
same,GI50,[57],> 100 µM (inactive)
same,GI50,[58],> 100 µM (inactive)
CCOC(=O)C(NC(=O)CC)(Nc1ccccc1F)C(F)(F)F (centres undefined),GI50,[1],> 100 µM (inactive)
same,GI50,[2],> 100 µM (inactive)
same,GI50,[3],> 100 µM (inactive)
same,GI50,[4],> 100 µM (inactive)
same,GI50,[6],> 100 µM (inactive)
same,GI50,[7],48.9 µM (inactive)
same,GI50,[8],> 100 µM (inactive)
same,GI50,[9],> 100 µM (inactive)
same,GI50,[10],> 100 µM (inactive)
same,GI50,[11],99.3 µM (inactive)
same,GI50,[12],> 100 µM (inactive)
same,GI50,[14],68.2 µM (inactive)
same,GI50,[15],> 100 µM (inactive)
same,GI50,[16],> 100 µM (inactive)
same,GI50,[17],> 100 µM (inactive)
same,GI50,[18],> 100 µM (inactive)
same,GI50,[19],38.4 µM (inactive)
same,GI50,[20],> 100 µM (inactive)
same,GI50,[21],> 100 µM (inactive)
same,GI50,[22],> 100 µM (inactive)
same,GI50,[23],> 100 µM (inactive)
same,GI50,[24],> 100 µM
same,GI50,[25],> 100 µM (inactive)
same,GI50,[26],> 100 µM (inactive)
same,GI50,[27],> 100 µM (inactive)
same,GI50,[28],> 100 µM (inactive)
same,GI50,[29],> 100 µM (inactive)
same,GI50,[30],> 100 µM (inactive)
same,GI50,[31],> 100 µM (inactive)
same,GI50,[32],42.2 µM (inactive)
same,GI50,[33],> 100 µM (inactive)
same,GI50,[34],> 100 µM (inactive)
same,GI50,[35],> 100 µM (inactive)
same,GI50,[36],> 100 µM (inactive)
same,GI50,[37],> 100 µM (inactive)
same,GI50,[38],> 100 µM (inactive)
same,GI50,[39],> 100 µM (inactive)
same,GI50,[40],> 100 µM (inactive)
same,GI50,[41],> 100 µM (inactive)
same,GI50,[43],> 100 µM (inactive)
same,GI50,[59],> 100 µM (inactive)
same,GI50,[45],> 100 µM (inactive)
same,GI50,[46],> 100 µM (inactive)
same,GI50,[47],> 100 µM (inactive)
same,GI50,[48],> 100 µM (inactive)
same,GI50,[49],> 100 µM (inactive)
same,GI50,[50],> 100 µM (inactive)
same,GI50,[51],> 100 µM (inactive)
same,GI50,[53],> 100 µM (inactive)
same,GI50,[54],> 100 µM (inactive)
same,GI50,[55],> 100 µM (inactive)
same,GI50,[56],86.9 µM (inactive)
same,GI50,[57],58.1 µM (inactive)
CC1(C)C=C(/C=N/Nc2ccc([N+](=O)[O-])cc2)C(C#N)=C(O)C1(C#N)C#N,GI50,[1],> 100 µM (inactive)
same,GI50,[2],> 100 µM (inactive)
same,GI50,[3],> 100 µM (inactive)
same,GI50,[4],> 100 µM (inactive)
same,GI50,[5],> 100 µM (inactive)
same,GI50,[6],> 100 µM (inactive)
same,GI50,[7],> 100 µM (inactive)
same,GI50,[8],> 100 µM (inactive)
same,GI50,[9],> 100 µM (inactive)
same,GI50,[10],> 100 µM (inactive)
same,GI50,[11],> 100 µM (inactive)
same,GI50,[12],> 100 µM (inactive)
same,GI50,[14],> 100 µM (inactive)
same,GI50,[15],> 100 µM (inactive)
same,GI50,[16],> 100 µM (inactive)
same,GI50,[17],> 100 µM (inactive)
same,GI50,[18],> 100 µM (inactive)
same,GI50,[19],> 100 µM (inactive)
same,GI50,[20],> 100 µM (inactive)
same,GI50,[21],> 100 µM (inactive)
same,GI50,[22],> 100 µM (inactive)
same,GI50,[23],> 100 µM (inactive)
same,GI50,[24],> 100 µM
same,GI50,[25],> 100 µM (inactive)
same,GI50,[26],> 100 µM (inactive)
same,GI50,[27],> 100 µM (inactive)
same,GI50,[28],> 100 µM (inactive)
same,GI50,[29],> 100 µM (inactive)
same,GI50,[30],> 100 µM (inactive)
same,GI50,[31],> 100 µM (inactive)
same,GI50,[32],> 100 µM (inactive)
same,GI50,[33],> 100 µM (inactive)
same,GI50,[34],> 100 µM (inactive)
same,GI50,[35],> 100 µM (inactive)
same,GI50,[36],> 100 µM (inactive)
same,GI50,[37],> 100 µM (inactive)
same,GI50,[38],> 100 µM (inactive)
same,GI50,[39],> 100 µM (inactive)
same,GI50,[40],> 100 µM (inactive)
same,GI50,[41],> 100 µM (inactive)
same,GI50,[42],> 100 µM (inactive)
same,GI50,[43],> 100 µM (inactive)
same,GI50,[59],> 100 µM (inactive)
same,GI50,[44],> 100 µM (inactive)
same,GI50,[45],> 100 µM (inactive)
same,GI50,[46],> 100 µM (inactive)
same,GI50,[47],> 100 µM (inactive)
same,GI50,[48],> 100 µM (inactive)
same,GI50,[49],> 100 µM (inactive)
same,GI50,[50],> 100 µM (inactive)
same,GI50,[51],> 100 µM (inactive)
same,GI50,[52],> 100 µM (inactive)
same,GI50,[53],> 100 µM (inactive)
same,GI50,[54],> 100 µM (inactive)
same,GI50,[55],> 100 µM (inactive)
same,GI50,[56],> 100 µM (inactive)
same,GI50,[57],> 100 µM (inactive)
same,GI50,[58],> 100 µM (inactive)
